Source: PubChem BioAssay (NCI)
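In this assay, cells in 96-well plates receive the compound at five concentrations for 48 hours. Endpoints are linearly interpolated between the surrounding concentrations. TGI is the concentration that stops growth completely.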

Tests used:
Experiment in all cases: NCI tumour cell line growth inhibition, 48 h
DMS 273 small cell lung = tested on: DMS 273 small cell lung
SNB-78 CNS = tested on: SNB-78 CNS
DMS 114 small cell lung = tested on: DMS 114 small cell lung
XF 498 CNS = tested on: XF 498 CNS
P388 leukemia = tested on: P388 leukemia
SN12K1 renal = tested on: SN12K1 renal
P388/ADR leukemia = tested on: P388/ADR leukemia
LXFL 529 NSCLC = tested on: LXFL 529 NSCLC

Structure (SMILES)	TGI (DMS 273 small cell lung) [µM]	TGI (SNB-78 CNS) [µM]	TGI (DMS 114 small cell lung) [µM]	TGI (XF 498 CNS) [µM]	TGI (P388 leukemia) [µM]	TGI (SN12K1 renal) [µM]	TGI (P388/ADR leukemia) [µM]	TGI (LXFL 529 NSCLC) [µM]
CN(C)CCNC(=O)c1cccc2[nH]c(-c3ccccn3)nc12	> 72.2	> 100	> 80.2	> 100	34.7	> 100	53.5	
COc1ccc(C2COc3c(ccc(O)c3C)C2)cc1OC (stereo not given)	199	> 200	196	124	> 125	154	> 113	
COc1ccc(/C=N/n2cnc3c(c2=O)SC(=C(C#N)C#N)N3c2ccccc2)cc1								> 100
